Experiments:
[1] = Inhibition of Mycobacterium tuberculosis shikimate kinase using shikimic acid substrate by measuring oxidation of NADH to NAD by pyruvate kinase and lactate dehydrogenase coupled enzyme assay based Dixon plot analysis
Shikimate kinase = Shikimate kinase (Helicobacter pylori (strain ATCC 700392 / 26695) (Campylobacterpylori), UniProt P56073); assay: Inhibition of Helicobacter pylori shikimate kinase using shikimic acid substrate by measuring oxidation of NADH to NAD by pyruvate kinase and lactate dehydrogenase coupled enzyme assay based Dixon plot analysis
Sequence of Shikimate kinase (P56073 whole entry): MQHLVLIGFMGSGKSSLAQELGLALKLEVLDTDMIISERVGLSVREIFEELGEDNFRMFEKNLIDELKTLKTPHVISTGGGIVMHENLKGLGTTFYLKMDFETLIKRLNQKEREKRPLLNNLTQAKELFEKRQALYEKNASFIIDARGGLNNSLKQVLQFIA

Helicobacter pylori = assay: Antimicrobial activity against Helicobacter pylori clinical isolates assessed as inhibition of visible microbial growth incubated for 6 days by agar dilution method; format: functional; conditions: 144 h
[2] = Inhibition of Mycobacterium tuberculosis shikimate kinase

| Structure (SMILES) | Ki [1] [µM] | Ki (Shikimate kinase) [µM] | MIC (Helicobacter pylori) [µg/mL] | Ki [2] [µM] |
| --- | --- | --- | --- | --- |
| O=C(O)C1=C[C@@H](O)[C@@H](O)[C@H](OCc2ccccc2)C1 | 360 | 3 | – | – |
| N[C@H]1C=C(C(=O)O)C[C@@H](OCc2ccc3sccc3c2)[C@@H]1O | 415 | 535 | – | – |
| CC1(C)S[C@@H]2[C@H](NC(=O)[C@H](N)c3ccccc3)C(=O)N2[C@H]1C(=O)O [AMPICILLIN] | – | – | 1 | – |
| Cc1ccc(CO[C@@H]2CC(C(=O)O)=C[C@@H](O)[C@H]2O)cc1 | 166 | 10.9 | – | – |
| COC(=O)C1=C[C@@H](O)[C@H](O)[C@H](OCc2cccc([N+](=O)[O-])c2)C1 | – | – | 128 | – |
| COC(=O)C1=C[C@@H](O)[C@@H](O)[C@H](n2cc(COc3ccccc3)nn2)C1 | – | – | 128 | – |
| COC(=O)C1=C[C@@H](O)[C@@H](O)[C@H](n2cc(Cc3ccccc3)nn2)C1 | – | – | 256 | – |
| O=C(O)C1=C[C@@H](O)[C@@H](O)[C@H](OCc2ccc3ccccc3c2)C1 | 22 | 1.8 | – | – |
| O=C(O)C1=C[C@@H](O)[C@@H](O)[C@H](OCc2c(F)c(F)c(F)c(F)c2F)C1 | 710 | 41 | – | – |
| O=C(O)C1=C[C@@H](O)[C@@H](O)[C@H](n2cc(COc3ccccc3)nn2)C1 | > 2000 | 67 | – | – |
| COC(=O)C1=C[C@@H](O)[C@@H](O)[C@H](OCc2ccc3sccc3c2)C1 | – | – | 4 | – |
| N[C@H]1C=C(C(=O)O)C[C@@H](O)[C@@H]1O | – | – | – | 65 |
| O=C(O)C1=C[C@@H](O)[C@@H](O)[C@H](OCc2cccc([N+](=O)[O-])c2)C1 | 10 | 0.46 | – | – |
| O=C(O)C1=C[C@@H](O)[C@@H](O)[C@H](OCc2cccc(F)c2)C1 | 180 | 1.28 | – | – |
| COC(=O)C1=C[C@H](N)[C@@H](O)[C@H](OCc2ccc3sccc3c2)C1 | – | – | 256 | – |
| Cc1cccc(CO[C@@H]2CC(C(=O)O)=C[C@@H](O)[C@H]2O)c1 | 109 | 2.1 | – | – |
| N[C@H]1C=C(C(=O)O)C[C@@H](OCc2ccc3ccccc3c2)[C@@H]1O | > 2000 | > 800 | – | – |
| COC(=O)C1=C[C@H](N)[C@@H](O)[C@H](OCc2ccc3ccccc3c2)C1 | – | – | 64 | – |
| O=C(O)C1=C[C@@H](O)[C@@H](O)[C@H](n2cc(Cc3ccccc3)nn2)C1 | > 2000 | 95 | – | – |
| COc1cccc(CO[C@@H]2CC(C(=O)O)=C[C@@H](O)[C@H]2O)c1 | 135 | 1 | – | – |
| O=C(O)C1=C[C@@H](O)[C@@H](O)[C@H](OCc2ccc3sccc3c2)C1 | 43 | 0.56 | – | – |

Reference: ChEMBL document CHEMBL3817792, “Targeting the Motion of Shikimate Kinase: Development of Competitive Inhibitors that Stabilize an Inactive Open Conformation of the Enzyme” (J Med Chem, 2016)
